From patent US11253516B2, “N2,N4-diphenylpyrimidine-2,4-diamine derivative, method for preparing same, and pharmaceutical composition containing same as active ingredient for prevention or treatment of cancer” (Korea Research Institute of Chemical Technology, priority 2017, dated 2022)

Assays:
EGFR wt. = EGFR wt. (Homo sapiens (Human), UniProt P00533); test: HTRF enzyme assay, wild-type EGFR; assay type: biochemical; conditions: recombinant enzyme
Protocol: (§1) The measurement of an activity on wild-type and EGFR mutation enzyme of the compound of the present invention was experimented by utilizing the HTRF system sold by Cisbio, as follow.
(§2) The composition of the assay buffer used in the activity measurement was 50 mM Tris-HCl pH 7.5, 100 mM NaCl, 7.5 mM MgCl2, 3 mM KCl, 0.01% Tween 20, 0.1% BSA, 1 mM DTT. The enzymatic reaction was carried out hereto by using the peptide substrate labeled with ATP of […] concentration and biotin of […] concentration. The analysis of an EGFR activity inhibitory effect of the compound was carried out in accordance with the analysis reaction recipe below.
(§3) Component 1: […] of EGFR wild-type or mutation enzyme
(§4) Component 2: […] of compound solution
(§5) Component 3: […] of peptide labeled with ATP and biotin
(§6) The enzymatic reaction was initiated by mixing Component 1 and Component 2 first, and then, adding component 3. After the reaction for 2 hours at 37° C., […] of a measurement solution consisting of streptavidin-XL665 provided by Cisbio and anti-phosphotyrosine antibody labeled with europium was added to the enzymatic reaction solution and reacted for 1 hour at ambient temperature. […] The measurement values measured at the seven concentrations of the compound were analyzed by using the Prism program (version 5.01, Graphpad Software, Inc.), and IC50 value of the compound was calculated, which is an inhibitory ability indicator.

[1] = system: Ba/F3 EGFR del19 cell line; test: CellTiter-Glo cell viability, Ba/F3 EGFR del19; assay type: cell-based; conditions: 72 hours
Protocol: (§7) The measurement of an activity on wild-type and mutation Ba/F3 EGFR cell line of the compound of the present invention was experimented by utilizing the CellTiter-Glo system sold by Promega, as follow. The CellTiter-Glo assay is a method for measuring the ATP present in cells in cell culture conditions to determine the cell viability.
(§8) The analysis of an EGFR inhibitory ability effect of the compound was carried out in accordance with the analysis reaction recipe below.
(§9) After the reaction of 72 hours, the plate treated with the compound was allowed to stand for 30 minutes at ambient temperature, and then, was further treated with 100 μl of the reagent, and was shaked for 10 minutes at ambient temperature. […] The measurement values measured at the eight concentrations of the compound were analyzed by using the Prism program (version 5.01, Graphpad Software, Inc.), and IC50 value of the compound was calculated, which is an inhibitory ability indicator.

Ba/F3 EGFR wt. cell line = test: CellTiter-Glo cell viability, Ba/F3 EGFR wild-type; assay type: cell-based; conditions: 72 hours
Protocol: as §7, §8, §9

EGFR del19/T790M = EGFR del19/T790M (Homo sapiens (Human), UniProt P00533, DEL746-750/T790M); test: HTRF enzyme assay, EGFR del19/T790M; assay type: biochemical; conditions: recombinant enzyme
Protocol: as §1, §2, §3, §4, §5, §6

EGFR del19/T790M/C797S = EGFR del19/T790M/C797S (Homo sapiens, UniProt P00533, C797S/DEL746-750/T790M); test: HTRF enzyme assay, EGFR del19/T790M/C797S; assay type: biochemical; conditions: HTRF, recombinant enzyme; read-out: EGFR del19/T790M/C797S IC50
Protocol: as §1, §2, §3, §4, §5, §6

[2] = system: Ba/F3 EGFR del19/T790M cell line; test: CellTiter-Glo cell viability, Ba/F3 EGFR del19/T790M; assay type: cell-based; conditions: CellTiter-Glo, 72 hours, read-out: Ba/F3 EGFR del19/T790M IC50
Protocol: as §7, §8
(§10) After the reaction of 72 hours, the plate treated with the compound was allowed to stand for 30 minutes at ambient temperature, and then, was further treated with 100 μl of the reagent, and was shaked for 10 minutes at ambient temperature.

[3] = system: Ba/F3 EGFR del19/T790M/C797S cell line; test: CellTiter-Glo cell viability, Ba/F3 EGFR del19/T790M/C797S; assay type: cell-based; conditions: CellTiter-Glo, 72 hours, read-out: Ba/F3 EGFR del19/T790M/C797S IC50
Protocol: as §7, §8, §10

EGFR del19 = EGFR del19 (Homo sapiens (Human), UniProt P00533, DEL746-750); test: HTRF enzyme assay, EGFR del19; assay type: biochemical; conditions: recombinant enzyme
Protocol: as §1, §2, §3, §4, §5, §6

Chain of EGFR del19/T790M (P00533 other isoform, or with tags, fused parts or gaps T790M/del 1-668/del 746-750 limits assumed): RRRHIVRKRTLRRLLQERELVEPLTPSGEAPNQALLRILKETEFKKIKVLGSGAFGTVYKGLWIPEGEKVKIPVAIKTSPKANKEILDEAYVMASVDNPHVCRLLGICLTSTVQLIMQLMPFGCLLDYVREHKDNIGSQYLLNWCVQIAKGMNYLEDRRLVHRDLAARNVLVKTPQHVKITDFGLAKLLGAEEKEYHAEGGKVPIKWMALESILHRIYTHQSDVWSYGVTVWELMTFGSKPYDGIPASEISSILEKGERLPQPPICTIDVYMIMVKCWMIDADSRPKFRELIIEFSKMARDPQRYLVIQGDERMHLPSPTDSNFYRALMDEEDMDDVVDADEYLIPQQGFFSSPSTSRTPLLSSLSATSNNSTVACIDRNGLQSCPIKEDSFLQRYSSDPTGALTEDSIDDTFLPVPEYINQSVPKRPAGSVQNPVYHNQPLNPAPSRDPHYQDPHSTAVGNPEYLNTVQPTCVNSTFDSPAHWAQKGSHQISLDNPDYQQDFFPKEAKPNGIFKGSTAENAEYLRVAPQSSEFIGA
Chain of EGFR wt. (P00533 25-1210): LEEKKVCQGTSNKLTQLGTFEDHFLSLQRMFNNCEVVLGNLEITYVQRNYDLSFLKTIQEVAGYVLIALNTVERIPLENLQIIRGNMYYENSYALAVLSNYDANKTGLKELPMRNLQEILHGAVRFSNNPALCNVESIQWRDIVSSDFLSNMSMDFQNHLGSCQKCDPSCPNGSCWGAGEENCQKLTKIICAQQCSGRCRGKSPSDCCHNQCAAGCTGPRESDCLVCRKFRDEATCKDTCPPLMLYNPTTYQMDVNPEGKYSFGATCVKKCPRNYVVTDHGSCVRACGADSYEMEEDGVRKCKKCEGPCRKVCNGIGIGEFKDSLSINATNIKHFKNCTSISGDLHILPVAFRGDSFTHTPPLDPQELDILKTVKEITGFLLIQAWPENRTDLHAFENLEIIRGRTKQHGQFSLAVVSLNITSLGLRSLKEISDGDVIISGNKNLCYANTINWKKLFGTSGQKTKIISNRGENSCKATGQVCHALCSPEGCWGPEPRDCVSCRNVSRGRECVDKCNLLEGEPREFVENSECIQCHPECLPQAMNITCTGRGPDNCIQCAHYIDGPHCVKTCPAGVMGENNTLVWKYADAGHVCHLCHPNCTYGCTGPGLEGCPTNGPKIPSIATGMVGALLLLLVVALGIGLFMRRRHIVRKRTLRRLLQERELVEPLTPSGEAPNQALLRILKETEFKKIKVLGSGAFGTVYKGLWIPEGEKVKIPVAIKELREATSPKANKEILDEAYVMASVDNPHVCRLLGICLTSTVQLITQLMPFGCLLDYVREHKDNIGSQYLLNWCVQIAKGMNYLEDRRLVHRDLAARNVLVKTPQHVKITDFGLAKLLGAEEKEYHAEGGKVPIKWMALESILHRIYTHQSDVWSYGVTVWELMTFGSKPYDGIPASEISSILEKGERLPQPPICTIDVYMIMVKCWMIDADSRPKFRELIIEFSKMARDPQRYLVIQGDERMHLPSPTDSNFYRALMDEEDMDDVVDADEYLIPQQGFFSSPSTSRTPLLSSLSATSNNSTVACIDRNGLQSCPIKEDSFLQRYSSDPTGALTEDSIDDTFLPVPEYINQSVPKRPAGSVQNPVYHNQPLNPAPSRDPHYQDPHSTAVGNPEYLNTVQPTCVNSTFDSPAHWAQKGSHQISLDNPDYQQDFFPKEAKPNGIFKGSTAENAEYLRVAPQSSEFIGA
Chain of EGFR del19/T790M/C797S (P00533 with tags, fused parts or gaps C797S/DEL746-750/T790M limits assumed): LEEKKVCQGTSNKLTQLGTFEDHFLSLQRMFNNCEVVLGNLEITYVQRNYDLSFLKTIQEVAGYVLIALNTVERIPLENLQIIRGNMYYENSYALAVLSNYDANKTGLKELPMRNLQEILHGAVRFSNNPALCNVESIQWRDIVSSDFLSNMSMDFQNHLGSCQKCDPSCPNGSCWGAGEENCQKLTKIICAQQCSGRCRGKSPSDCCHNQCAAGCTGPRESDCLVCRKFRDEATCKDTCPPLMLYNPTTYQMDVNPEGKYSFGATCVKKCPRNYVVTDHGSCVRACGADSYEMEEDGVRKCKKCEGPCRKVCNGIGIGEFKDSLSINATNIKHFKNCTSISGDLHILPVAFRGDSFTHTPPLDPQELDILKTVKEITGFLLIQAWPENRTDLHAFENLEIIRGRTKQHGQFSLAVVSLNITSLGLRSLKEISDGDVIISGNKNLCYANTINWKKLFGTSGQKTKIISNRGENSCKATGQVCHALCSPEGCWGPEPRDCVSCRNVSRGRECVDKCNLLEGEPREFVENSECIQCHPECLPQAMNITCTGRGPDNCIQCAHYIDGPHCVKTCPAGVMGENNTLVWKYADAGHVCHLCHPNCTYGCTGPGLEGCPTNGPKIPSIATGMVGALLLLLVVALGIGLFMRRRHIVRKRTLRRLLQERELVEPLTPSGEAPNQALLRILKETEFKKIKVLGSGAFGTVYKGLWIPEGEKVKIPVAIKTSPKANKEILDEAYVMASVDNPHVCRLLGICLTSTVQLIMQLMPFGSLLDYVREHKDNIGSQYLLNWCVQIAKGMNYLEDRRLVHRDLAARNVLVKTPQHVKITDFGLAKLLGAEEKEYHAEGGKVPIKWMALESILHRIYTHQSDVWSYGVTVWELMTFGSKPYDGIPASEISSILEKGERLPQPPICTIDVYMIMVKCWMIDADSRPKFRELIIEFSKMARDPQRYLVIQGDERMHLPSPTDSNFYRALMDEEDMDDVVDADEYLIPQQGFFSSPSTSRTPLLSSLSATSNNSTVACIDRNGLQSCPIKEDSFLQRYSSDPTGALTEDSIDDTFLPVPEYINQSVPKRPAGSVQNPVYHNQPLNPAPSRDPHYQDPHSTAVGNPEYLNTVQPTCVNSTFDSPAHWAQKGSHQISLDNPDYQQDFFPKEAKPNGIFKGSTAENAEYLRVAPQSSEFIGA
Chain of EGFR del19 (P00533 other isoform, or with tags, fused parts or gaps del 1-668/del 746-750 limits assumed): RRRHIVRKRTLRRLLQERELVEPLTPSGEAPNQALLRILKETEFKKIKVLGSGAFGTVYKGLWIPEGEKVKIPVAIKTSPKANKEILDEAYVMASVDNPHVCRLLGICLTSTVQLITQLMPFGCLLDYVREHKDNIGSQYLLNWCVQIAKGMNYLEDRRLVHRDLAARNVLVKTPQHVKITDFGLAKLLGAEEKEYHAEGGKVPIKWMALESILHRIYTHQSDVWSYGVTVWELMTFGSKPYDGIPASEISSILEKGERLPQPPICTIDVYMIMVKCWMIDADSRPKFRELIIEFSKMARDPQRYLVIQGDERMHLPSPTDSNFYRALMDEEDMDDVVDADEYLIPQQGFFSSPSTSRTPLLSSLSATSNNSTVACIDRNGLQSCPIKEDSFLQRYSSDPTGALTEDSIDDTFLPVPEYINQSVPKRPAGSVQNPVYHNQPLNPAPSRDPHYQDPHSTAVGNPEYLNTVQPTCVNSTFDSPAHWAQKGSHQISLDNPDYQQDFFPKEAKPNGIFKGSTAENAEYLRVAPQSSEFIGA

Row | IC50 (EGFR wt.) | IC50 [1] | IC50 (Ba/F3 EGFR wt. cell line) | IC50 (EGFR del19/T790M) | IC50 (EGFR del19/T790M/C797S) | IC50 [2] | IC50 [3] | IC50 (EGFR del19) | Structure (SMILES)
1 | 1.2 µM | 1.9 µM | 2.8 µM | 0.004 µM | 0.007 µM | 2.1 µM | 2.9 µM | 0.005 µM | COc1cc(N2CCNCC2)ccc1Nc1ncc(Cl)c(Nc2ccccc2NS(N)(=O)=O)n1 [Example 29, 4-(4-((5-chloro-4-((2-(sulfamoylamino)phenyl)amino)pyrimidin-2-yl)amino)-3-methoxyphenyl)piperazine]
2 | 1.9 µM | 0.98 µM | 4.4 µM | 0.25 µM | 0.033 µM | 0.65 µM | 1.5 µM | 0.013 µM | COc1cc(C2CCN(CCO)CC2)ccc1Nc1ncc(Cl)c(Nc2ccccc2NS(C)(=O)=O)n1 [Example 13, N-(2-((5-chloro-2-((4-(1-(2-hydroxyethyl)piperidin-4-yl)-2-methoxyphenyl)amino)pyrimidin-4-yl)amino)phenyl)methanesulfonamide]
3 | 0.39 µM | 6.4 µM | > 15 µM | 0.01 µM | 0.011 µM | 9 µM | 5.8 µM | 0.026 µM | COc1cc(C2CCNCC2)ccc1Nc1ncc(Cl)c(Nc2ccccc2NS(N)(=O)=O)n1 [Example 6, 4-(4-((5-chloro-4-((2-(sulfamoylamino)phenyl)amino)pyrimidin-2-yl)amino)-3-methoxyphenyl)piperidine]
4 | 1.3 µM | 1.9 µM | 8 µM | 0.16 µM | 0.014 µM | 1.3 µM | 3.3 µM | 0.004 µM | COc1cc(N2CCOCC2)ccc1Nc1ncc(Cl)c(Nc2ccccc2NS(C)(=O)=O)n1 [Example 32, N-(2-((5-chloro-2-((2-methoxy-4-morpholinophenyl)amino)pyrimidin-4-yl)amino)phenyl)methanesulfonamide]
5 | 0.84 µM | 1 µM | 4.1 µM | 0.005 µM | 0.002 µM | 1.2 µM | 1.6 µM | 0.018 µM | COc1cc(C2CCNCC2)ccc1Nc1ncc(Br)c(Nc2ccccc2NS(C)(=O)=O)n1 [Example 3, N-(2-((5-bromo-2-((2-methoxy-4-(piperidin-4-yl)phenyl)amino)pyrimidin-4-yl)amino)phenyl)methanesulfonamide]
6 | 1.2 µM | 0.33 µM | 0.32 µM | 0.13 µM | 0.002 µM | 0.38 µM | 0.08 µM | 0.022 µM | COc1cc(C2CCN(C)CC2)ccc1Nc1ncc(Cl)c(Nc2ccccc2NS(C)(=O)=O)n1 [Example 12, N-(2-((5-chloro-2-((2-methoxy-4-(1-methylpiperidin-4-yl)phenyl)amino)pyrimidin-4-yl)amino)phenyl)methanesulfonamide]
7 | 1.4 µM | 0.5 µM | 0.75 µM | 0.095 µM | 0.034 µM | 0.54 µM | 0.11 µM | 0.006 µM | COc1cc(C2CCN(C3CCN(CCO)CC3)CC2)ccc1Nc1ncc(Cl)c(Nc2ccccc2NS(C)(=O)=O)n1 [Example 14, N-(2-((5-chloro-2-((4-(1′-(2-hydroxyethyl)-[1,4′-bipiperidin]-4-yl)-2-methoxyphenyl)amino)pyrimidin-4-yl)amino)phenyl)methanesulfonamide]
8 | > 10 µM | 0.47 µM | 3.4 µM | 0.038 µM | 0.002 µM | 1.6 µM | 3.3 µM | 0.079 µM | COc1cc(C2CCNCC2)ccc1Nc1ncc(Br)c(Nc2ccccc2NS(N)(=O)=O)n1 [Example 7, 4-(4-((5-bromo-4-((2-(sulfamoylamino)phenyl)amino)pyrimidin-2-yl)amino)-3-methoxyphenyl)piperidine]
9 | 0.6 µM | 2.2 µM | 2.1 µM | 0.078 µM | 0.012 µM | 1.7 µM | 0.68 µM | 0.004 µM | COc1cc(C2CCN(C3CCN(C)CC3)CC2)ccc1Nc1ncc(Cl)c(Nc2ccccc2NS(C)(=O)=O)n1 [Example 17, N-(2-((5-chloro-2-((2-methoxy-4-(1′-methyl-[1,4′-bipiperidin]-4-yl)phenyl)amino)pyrimidin-4-yl)amino)phenyl)methanesulfonamide]
10 | 1.8 µM | 0.68 µM | 5.4 µM | 0.034 µM | 0.003 µM | 0.85 µM | 2.7 µM | 0.024 µM | COc1cc(N2CCNCC2)ccc1Nc1ncc(Br)c(Nc2ccccc2NS(N)(=O)=O)n1 [Example 30, 4-(4-((5-bromo-4-((2-(sulfamoylamino)phenyl)amino)pyrimidin-2-yl)amino)-3-methoxyphenyl)piperazine]
11 | 4.3 µM | 0.26 µM | 2.4 µM | 0.013 µM | 0.014 µM | 0.57 µM | 0.79 µM | 0.033 µM | COc1cc(C2CCNCC2)ccc1Nc1ncc(C(F)(F)F)c(Nc2ccccc2NS(C)(=O)=O)n1 [Example 5, N-(2-((2-((2-methoxy-4-(piperidin-4-yl)phenyl)amino)-5-(trifluoromethyl)pyrimidin-4-yl)amino)phenyl)methanesulfonamide]
